Details: 101 kPa, Liquid

OCCO [1,2-ethanediol]
mass density [kg/m3]
Details | Buoyancy - hydrostatic balance | Pycnometric method
273.15 K | 1127.2 | 1127.05
283.15 K | 1120.58 | 1120.5
293.15 K | 1113.84 | 1113.84
303.15 K | 1106.98 | 1107.07
313.15 K | 1099.99 | 1100.19
323.15 K | 1092.88 | 1093.2
333.15 K | 1085.65 | 1086.11
343.15 K | 1078.29 | 1078.91
353.15 K | 1070.8 | 1071.6
363.15 K | 1063.2 | 1064.18
373.15 K | 1055.47 | –
383.15 K | 1047.62 | –
393.15 K | 1039.64 | –
403.15 K | 1031.53 | –
413.15 K | 1023.31 | –
423.15 K | 1014.96 | –
433.15 K | 1006.48 | –
443.15 K | 997.88 | –
453.15 K | 989.16 | –
463.15 K | 980.31 | –
473.15 K | 971.34 | –

CC(O)CO (configuration not stated) [1,2-propanediol]
mass density [kg/m3]
Details | Buoyancy - hydrostatic balance | Pycnometric method
273.15 K | 1051.77 | 1052.17
283.15 K | 1044.65 | 1044.74
293.15 K | 1037.13 | 1037.22
303.15 K | 1029.87 | 1029.64
313.15 K | 1022.37 | 1021.98
323.15 K | 1014.64 | 1014.25
333.15 K | 1006.75 | 1006.45
343.15 K | 998.71 | 998.57
353.15 K | 990.77 | 990.62
363.15 K | 982.38 | 982.6
373.15 K | 973.81 | –
383.15 K | 965.04 | –
393.15 K | 956.09 | –
403.15 K | 946.95 | –
413.15 K | 937.62 | –
423.15 K | 928.1 | –
433.15 K | 918.39 | –
443.15 K | 908.5 | –
453.15 K | 898.41 | –
463.15 K | 888.14 | –

CCCCCCC [heptane]
mass density [kg/m3]
Details | 293.15 K | 301.62 K | 310.71 K | 319.85 K | 329.04 K | 338.26 K | 347.53 K | 356.84 K
Buoyancy - hydrostatic balance | 683.65 | 675.96 | 668.05 | 660.16 | 652.58 | 644.01 | 635.57 | 627.05
Pycnometric method | 683.67 | 675.75 | 667.37 | 659.85 | 651.92 | 644.32 | 635.91 | 627.85

— the NIST ThermoML archive (doi:10.1021/acs.jced.8b00028)
